Measurements as given in article PMC8113213, “Physiologically based kinetic modelling based prediction of in vivo rat and human acetylcholinesterase (AChE) inhibition upon exposure to diazinon” (Archives of Toxicology, 2021).
Like-named read-outs stand apart in the source and are kept apart here.

How the values were obtained:
[1] = human; ref Poklis et al. 1980; cited from earlier work
[2] = system: CYP450; experiment: in vitro; assay type: in vitro ADME, rat; details: for Km: rat
Method: The in vitro incubations for investigating CYP450-mediated biotransformation of DZN were performed using rat and human liver microsomes based on the method described by Sams et al. ([2004]) and Smith et al. ([2011]) with some modifications. Preliminary studies were carried out to optimize both incubation time and microsomal protein concentration, to define conditions at which metabolism was linear with respect to time and the amount of microsomal protein (data not shown) to be used for further kinetic studies. The final incubations contained 50 mM Tris–HCl (pH 7.4), 5 mM MgCl2, 1 mM EDTA (as an A-esterase PON1 inhibitor) (Bizoń and Milnerowicz [2018]), 50 µM iso-OMPA (as a B-esterases inhibitor) (Lane et al. [2006]), 1 mM NADPH, and DZN at final concentrations of 1, 2.5, 5, 10, 25, 50, 100 and 250 µM (added from 100 times concentrated stock solutions in methanol). […] Addition of esterase inhibitors EDTA and iso-OMPA has been commonly applied when studying CYP450-mediated conversion of organophosphate (OP) pesticides in liver microsomal incubations for determining kinetic parameters for their CYP450-mediated pathways (Buratti et al. [2005]; Dadson et al. [2013]; Ellison et al. [2012]; Foxenberg et al. [2007]; Poet et al. [2003]; Smith et al. [2011]). Based on previous studies, CYP450-mediated activities are not adversely affected by the addition of these inhibitors (1 mM EDTA and 50 µM iso-OMPA) to the microsomal incubations (Buratti et al. [2003]; Rasmussen [2012]). After 1 min preincubation in a 37 °C water bath, 2.5 µl of human or rat liver microsomes (final concentration 0.25 mg microsomal protein/ml) were added to initiate the reaction. The total incubation mixture was 200 µl. Control incubations were carried out by replacing NADPH with buffer. The reaction was terminated after 2.5 min by adding 200 µl ice-cold ACN. After the incubation, samples were centrifuged at 16000 g (4℃) for 5 min, and supernatants of rat samples were further diluted 2 × in a mixture of ACN and 50 mM Tris–HCl (pH 7.4) (ratio 1:1, v/v). At the end, both diluted rat sample supernatants and undiluted human sample supernatants were analysed by LC–MS/MS for quantification of metabolite formation.
The chromatographic separations were conducted on a Kinetex® 1.7 µm Phenyl-Hexyl 100 Å LC column (100 × 2.1 mm). The injection volume was 1 µl at a flow rate of 0.3 ml/min. The temperature of the column was kept at 40℃. The mobile phase A consisted of ultrapure water with 0.1% (v/v) formic acid, and mobile phase B consisted of acetonitrile (ACN) with 0.1% (v/v) formic acid. […] The instrument was used in positive mode with multiple reaction monitoring (MRM). The optimized acquisition parameters for DZN, DZO and the metabolite IMHP are listed in Supplementary data I.
The calculation was done using GraphPad Prism 5 for Windows, version 5.04 (GraphPad software, San Diego California USA).

[3] = human, cited from earlier work
[4] = target: T1, rat RBC AChE (Rattus norvegicus, UniProt P37136); experiment: In vitro AChE inhibition assay (Ellman) with extracted rat RBC AChE; assay type: biochemical
T1 construct: the membrane fraction (containing AChE) was sedimented by centrifugation at 20,000g for 40 min; tissue BioIVT; host or cells: rat red blood cell membranes (from whole blood)
T1 sequence (P37136 other isoform, or with tags, fused parts or gaps): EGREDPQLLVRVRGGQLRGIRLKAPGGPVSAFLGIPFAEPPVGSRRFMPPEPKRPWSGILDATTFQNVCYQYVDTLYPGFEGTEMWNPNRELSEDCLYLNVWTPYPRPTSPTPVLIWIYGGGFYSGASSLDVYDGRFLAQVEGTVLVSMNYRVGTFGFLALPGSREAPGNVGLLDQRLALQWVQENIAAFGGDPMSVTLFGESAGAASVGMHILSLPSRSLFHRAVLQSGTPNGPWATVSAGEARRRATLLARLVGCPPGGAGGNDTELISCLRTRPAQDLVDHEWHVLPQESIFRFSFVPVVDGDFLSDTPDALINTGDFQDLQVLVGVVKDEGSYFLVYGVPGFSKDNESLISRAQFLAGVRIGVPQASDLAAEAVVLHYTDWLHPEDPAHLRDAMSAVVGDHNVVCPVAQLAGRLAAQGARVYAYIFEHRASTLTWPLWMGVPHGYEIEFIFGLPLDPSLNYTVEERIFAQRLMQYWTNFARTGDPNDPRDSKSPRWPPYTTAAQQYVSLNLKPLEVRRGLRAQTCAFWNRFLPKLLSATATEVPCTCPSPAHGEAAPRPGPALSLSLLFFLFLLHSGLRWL
Method: However, since recombinant rat AChE was not commercially available, extracted rat RBC AChE was used. […] The concentration of DTNB was calculated based on the concentration ratio (ATC/DTNB) of 2 (Stern et al. [2014]). […] To initiate the inhibition reaction, 1 µl rhAChE or rat AChE (final concentration 0.6 mU/ml) was added to the incubation. The total incubation volume was 50 µl. After 15 min incubation at 37℃, 150 µl reaction reagents (mixture of ATC at a final concentration of 150 µM and DTNB at a final concentration of 75 µM) were added into each well. The final total volume of each well was 200 µl. Subsequently, the 96-well plate was measured continuously for 10 min at absorbance 412 nm at 37℃ to quantify the remaining AChE activity.
The rhAChE and rat AChE activity were expressed as the remaining AChE activity relative to solvent control (100% activity) and positive control (0% activity) based on Eq. (2):2 AChEactivity\%=A412t10-t0testcompound-A412t10-t0positivecontrol/A412t10-t0solventcontrol-A412t10-t0positivecontrol×100\% , where the A412(t10 − t0)test compound is the change in the absorbance at A412 nm between 0 and 10 min for the test compound, the A412(t10 − t0)positive control is the change in the absorbance at A412 nm between 0 and 10 min for the CPO sample, and the A412(t10 − t0)solvent control is the change in the absorbance at A412nm between 0 and 10 min for the 0.2% ethanol sample.

[5] = system: brain and RBC AChE; details: cited from earlier work
[6] = rat versus human liver microsomes

CCOP(=S)(OCC)Oc1cc(C)nc(C(C)C)n1 [DZN, O,O-diethyl O-2-isopropyl-6-methylpyrimidin-4-yl phosphorothioate]
toxic dose level reported [1]: 293 mg/kg bw
Vmax DZN to DZO ([2]; rat liver microsomes): 0.288 nmol/min/mg microsomal protein
Vmax DZN to IMHP ([2]; rat liver microsomes): 1.098 nmol/min/mg microsomal protein
CYP450-mediated detoxification, more efficient in rat compared to human [2, 6]: 15 fold
lower Km for CYP450-mediated bioactivation in rat than in human [2, 6]: 12.6 fold
lower Km for CYP450-mediated detoxification in rat than in human [2, 6]: 9.3 fold
unscaled catalytic efficiency of CYP450-mediated bioactivation, higher in rat than human [2, 6]: 20 fold
Km ([2]; pH 7.4, Km DZN to DZO, rat liver microsomes): 4.75 µM
Km ([2]; pH 7.4, rat liver microsomes, read-out: Km DZN to IMHP): 1.76 µM
fractional absorption (fa) ([3]; oral, ref Garfitt et al. 2002): 0.66
first-order rate constant for absorption from the intestine into the liver (KaI) ([3]; ref Poet et al. 2004): 0.59 h⁻¹
first-order rate constant for absorption from the stomach into the liver (KaS) ([3]; ref Poet et al. 2004): 0.32 h⁻¹
first-order rate constant for transfer from the stomach into the intestine (KsI) ([3]; ref Poet et al. 2004): 0.48 h⁻¹
IC50 ([4]; rat RBC AChE, 15 min incubation at 37℃): 14.7 µM
toxic equivalency factor (TEF) ([4]; rat, IC50 DZO/IC50 DZN, TEF of DZO set at 1.0): 0.00351
overall NOAEL from three rat studies ([5]; EFSA, ref EFSA 2006): 2.5 mg/kg bw
LOAEL, inhibition of brain and RBC AChE activity in female rat ([5]; JMPR, ref JMPR 2016): 25 mg/kg bw
NOAEL, acute (neuro)toxicity study in rats ([5]; JMPR, ref JMPR 2016): 2.5 mg/kg bw
Reported NOAEL from EFSA and JMPR (adult rat) ([5]; ref EFSA 2006, JMPR 2016): 2.5 mg/kg bw
